Test results taken from patent US9095577B2, “Stabilized amine-containing actives in oral film compositions” (MonoSol Rx, LLC, priority 2009, dated 2015).

Assay: Reaction of sweetener with the amine-containing active (gel formation)
Format: physicochemical
Method: It has been discovered that gellation and/or agglomeration of components particularly occurred when sucralose was added to the active ingredient (such as ondansetron). It has been determined that the particular choice of excipients combined together may be important to prevent the formation of undesirable gellation and/or agglomeration. […] It is hypothesized that the amines on the active component may form quaternary salts with the primary alkyl chlorides on the sucralose. Quaternary polymers make good hydrogels, and thus undesirably form a gel-like structure, which is problematic in the processing of film matrices to form films having a uniformity of content.

OC[C@H]1O[C@@](CO)(O[C@H]2O[C@H](CO)[C@@H](O)[C@H](O)[C@H]2O)[C@@H](O)[C@@H]1O [sucrose]
reaction with the amine-containing active (gel formation): did not react
